Experiment [1] addresses T1, Polyunsaturated fatty acid 5-lipoxygenase (Homo sapiens) (UniProt P09917).
T1 sequence (whole entry): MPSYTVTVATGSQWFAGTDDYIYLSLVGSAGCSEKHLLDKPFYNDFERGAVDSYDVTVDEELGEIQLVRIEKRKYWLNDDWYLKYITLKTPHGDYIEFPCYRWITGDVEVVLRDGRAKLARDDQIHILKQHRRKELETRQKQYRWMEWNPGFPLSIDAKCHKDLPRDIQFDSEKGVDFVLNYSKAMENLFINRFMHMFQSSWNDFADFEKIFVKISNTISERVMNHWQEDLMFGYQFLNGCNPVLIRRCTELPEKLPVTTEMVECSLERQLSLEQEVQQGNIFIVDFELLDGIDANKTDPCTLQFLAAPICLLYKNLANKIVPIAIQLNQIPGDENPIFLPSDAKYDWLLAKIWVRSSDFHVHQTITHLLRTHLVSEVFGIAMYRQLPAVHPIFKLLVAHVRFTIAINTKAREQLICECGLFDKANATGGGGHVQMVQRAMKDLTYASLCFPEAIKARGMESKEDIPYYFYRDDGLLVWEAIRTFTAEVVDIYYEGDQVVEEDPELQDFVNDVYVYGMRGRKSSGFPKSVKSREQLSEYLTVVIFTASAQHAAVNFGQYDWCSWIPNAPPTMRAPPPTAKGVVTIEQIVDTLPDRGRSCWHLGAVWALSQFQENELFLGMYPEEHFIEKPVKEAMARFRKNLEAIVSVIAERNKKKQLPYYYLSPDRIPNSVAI
Kind of experiment: Inhibition of human recombinant 5-lipoxygenase at 1 mM after 10 mins by fluorescence assay.

Experiment [2] deals with T2, Tyrosinase (Agaricus bisporus) (UniProt O42713).
T2 sequence (whole entry): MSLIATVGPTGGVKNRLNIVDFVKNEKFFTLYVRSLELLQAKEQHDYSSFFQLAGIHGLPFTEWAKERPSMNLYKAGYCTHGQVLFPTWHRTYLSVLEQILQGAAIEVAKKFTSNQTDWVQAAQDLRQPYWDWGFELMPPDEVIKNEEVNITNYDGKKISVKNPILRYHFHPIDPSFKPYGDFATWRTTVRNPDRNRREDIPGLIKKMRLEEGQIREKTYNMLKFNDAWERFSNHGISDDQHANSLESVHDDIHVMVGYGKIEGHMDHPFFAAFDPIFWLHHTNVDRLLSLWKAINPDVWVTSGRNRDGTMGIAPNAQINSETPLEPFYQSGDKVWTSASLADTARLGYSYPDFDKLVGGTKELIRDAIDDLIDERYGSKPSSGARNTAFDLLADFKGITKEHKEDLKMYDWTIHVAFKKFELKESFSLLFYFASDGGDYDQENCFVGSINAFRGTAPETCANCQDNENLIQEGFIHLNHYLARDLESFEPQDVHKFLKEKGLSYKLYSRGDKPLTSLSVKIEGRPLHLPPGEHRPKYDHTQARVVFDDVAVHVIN
Particulars: at 1 mM.

In experiment [3] the target is T3, Lethal factor (Bacillus anthracis) (UniProt P15917).
T3 sequence (whole entry): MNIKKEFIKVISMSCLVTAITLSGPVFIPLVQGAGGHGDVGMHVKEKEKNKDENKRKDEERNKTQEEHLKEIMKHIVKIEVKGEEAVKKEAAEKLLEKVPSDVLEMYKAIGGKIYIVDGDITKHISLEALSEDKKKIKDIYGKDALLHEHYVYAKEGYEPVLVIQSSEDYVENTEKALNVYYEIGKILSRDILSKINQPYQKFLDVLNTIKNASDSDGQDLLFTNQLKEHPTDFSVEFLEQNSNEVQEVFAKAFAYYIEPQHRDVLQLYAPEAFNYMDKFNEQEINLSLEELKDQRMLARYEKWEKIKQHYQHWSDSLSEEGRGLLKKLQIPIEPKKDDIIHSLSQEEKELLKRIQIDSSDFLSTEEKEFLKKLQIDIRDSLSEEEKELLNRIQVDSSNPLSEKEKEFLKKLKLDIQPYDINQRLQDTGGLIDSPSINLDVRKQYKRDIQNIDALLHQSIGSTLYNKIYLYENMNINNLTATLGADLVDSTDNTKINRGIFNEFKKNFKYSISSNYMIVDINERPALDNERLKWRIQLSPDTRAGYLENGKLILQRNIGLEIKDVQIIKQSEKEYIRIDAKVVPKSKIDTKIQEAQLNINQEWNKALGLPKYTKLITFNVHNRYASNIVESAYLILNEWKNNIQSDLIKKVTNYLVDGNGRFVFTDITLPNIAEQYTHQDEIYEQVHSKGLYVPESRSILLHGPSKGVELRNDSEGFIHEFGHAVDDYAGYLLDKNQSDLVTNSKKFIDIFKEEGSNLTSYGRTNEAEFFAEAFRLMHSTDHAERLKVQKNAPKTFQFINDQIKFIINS
The following applies: at 1 mM.

Experiment [4] concerns the target T4, Interstitial collagenase (Homo sapiens) (UniProt P03956).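 Further: recombinant human enzyme, with inhibition measured after 30 min.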
T4 sequence (whole entry): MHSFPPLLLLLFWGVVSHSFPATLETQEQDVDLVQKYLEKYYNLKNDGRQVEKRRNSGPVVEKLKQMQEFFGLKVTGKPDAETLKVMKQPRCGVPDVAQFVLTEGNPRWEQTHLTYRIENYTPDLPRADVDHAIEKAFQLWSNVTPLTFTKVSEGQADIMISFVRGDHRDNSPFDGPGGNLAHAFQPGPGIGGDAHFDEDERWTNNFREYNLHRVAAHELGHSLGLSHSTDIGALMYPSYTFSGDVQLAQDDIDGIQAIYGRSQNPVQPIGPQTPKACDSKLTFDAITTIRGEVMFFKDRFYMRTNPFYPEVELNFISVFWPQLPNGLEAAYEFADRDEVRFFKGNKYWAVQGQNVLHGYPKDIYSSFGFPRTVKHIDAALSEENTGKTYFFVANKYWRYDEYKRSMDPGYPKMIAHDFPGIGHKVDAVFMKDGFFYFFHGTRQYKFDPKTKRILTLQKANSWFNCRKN
The following applies: at 1 mM.

The target in experiment [5] is Stromelysin-1 (Homo sapiens) (UniProt P08254). Particulars: at 1 mM.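 Further: recombinant enzyme, inhibition read after a 30 min incubation.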
Chain of Stromelysin-1 (Homo sapiens) (P08254 100-477 limits assumed): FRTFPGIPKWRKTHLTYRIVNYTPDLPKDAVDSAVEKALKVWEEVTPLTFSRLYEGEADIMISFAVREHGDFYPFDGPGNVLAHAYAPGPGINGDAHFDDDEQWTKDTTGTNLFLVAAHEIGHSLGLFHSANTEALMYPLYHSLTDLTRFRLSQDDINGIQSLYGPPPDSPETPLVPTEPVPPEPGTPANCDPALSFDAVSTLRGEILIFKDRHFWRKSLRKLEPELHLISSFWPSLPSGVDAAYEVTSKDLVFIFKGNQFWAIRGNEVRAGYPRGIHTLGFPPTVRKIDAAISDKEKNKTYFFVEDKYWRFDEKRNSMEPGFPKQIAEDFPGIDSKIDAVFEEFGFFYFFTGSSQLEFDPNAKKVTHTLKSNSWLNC
Experiment [6] has as its target Neutrophil collagenase (Homo sapiens) (UniProt P22894). Particulars: at 1 mM.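 Further: recombinant human MMP8 enzyme, percent inhibition read after 30 min.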
The target of experiment [7] is Matrix metalloproteinase-9 (Homo sapiens) (UniProt P14780). The following applies: at 1 mM.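 Further: recombinant human MMP9, activity read after 30 min.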
Chain of Matrix metalloproteinase-9 (Homo sapiens) (P14780 whole entry): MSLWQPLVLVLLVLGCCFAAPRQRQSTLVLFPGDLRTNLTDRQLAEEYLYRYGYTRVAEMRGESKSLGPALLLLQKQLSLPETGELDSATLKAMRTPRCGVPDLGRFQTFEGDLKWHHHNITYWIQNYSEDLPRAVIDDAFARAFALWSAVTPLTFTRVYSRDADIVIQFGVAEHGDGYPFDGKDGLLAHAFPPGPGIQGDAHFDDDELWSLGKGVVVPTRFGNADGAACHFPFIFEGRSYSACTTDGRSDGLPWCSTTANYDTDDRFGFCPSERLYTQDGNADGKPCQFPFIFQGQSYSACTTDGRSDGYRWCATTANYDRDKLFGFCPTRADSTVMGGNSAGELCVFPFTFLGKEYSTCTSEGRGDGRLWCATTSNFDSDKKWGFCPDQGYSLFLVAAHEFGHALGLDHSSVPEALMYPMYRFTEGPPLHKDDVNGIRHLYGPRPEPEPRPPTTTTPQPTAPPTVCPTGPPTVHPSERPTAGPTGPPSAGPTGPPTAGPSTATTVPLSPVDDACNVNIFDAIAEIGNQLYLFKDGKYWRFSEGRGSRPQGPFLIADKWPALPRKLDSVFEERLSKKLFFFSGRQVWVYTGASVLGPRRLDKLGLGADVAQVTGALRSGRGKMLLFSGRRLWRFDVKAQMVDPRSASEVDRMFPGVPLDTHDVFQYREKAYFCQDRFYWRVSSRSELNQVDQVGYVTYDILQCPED
The target of experiment [8] is T5, Nitric oxide synthase, inducible (Mus musculus) (UniProt P29477).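 Further: recombinant enzyme, activity read out colorimetrically after 40 min.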
T5 sequence (whole entry): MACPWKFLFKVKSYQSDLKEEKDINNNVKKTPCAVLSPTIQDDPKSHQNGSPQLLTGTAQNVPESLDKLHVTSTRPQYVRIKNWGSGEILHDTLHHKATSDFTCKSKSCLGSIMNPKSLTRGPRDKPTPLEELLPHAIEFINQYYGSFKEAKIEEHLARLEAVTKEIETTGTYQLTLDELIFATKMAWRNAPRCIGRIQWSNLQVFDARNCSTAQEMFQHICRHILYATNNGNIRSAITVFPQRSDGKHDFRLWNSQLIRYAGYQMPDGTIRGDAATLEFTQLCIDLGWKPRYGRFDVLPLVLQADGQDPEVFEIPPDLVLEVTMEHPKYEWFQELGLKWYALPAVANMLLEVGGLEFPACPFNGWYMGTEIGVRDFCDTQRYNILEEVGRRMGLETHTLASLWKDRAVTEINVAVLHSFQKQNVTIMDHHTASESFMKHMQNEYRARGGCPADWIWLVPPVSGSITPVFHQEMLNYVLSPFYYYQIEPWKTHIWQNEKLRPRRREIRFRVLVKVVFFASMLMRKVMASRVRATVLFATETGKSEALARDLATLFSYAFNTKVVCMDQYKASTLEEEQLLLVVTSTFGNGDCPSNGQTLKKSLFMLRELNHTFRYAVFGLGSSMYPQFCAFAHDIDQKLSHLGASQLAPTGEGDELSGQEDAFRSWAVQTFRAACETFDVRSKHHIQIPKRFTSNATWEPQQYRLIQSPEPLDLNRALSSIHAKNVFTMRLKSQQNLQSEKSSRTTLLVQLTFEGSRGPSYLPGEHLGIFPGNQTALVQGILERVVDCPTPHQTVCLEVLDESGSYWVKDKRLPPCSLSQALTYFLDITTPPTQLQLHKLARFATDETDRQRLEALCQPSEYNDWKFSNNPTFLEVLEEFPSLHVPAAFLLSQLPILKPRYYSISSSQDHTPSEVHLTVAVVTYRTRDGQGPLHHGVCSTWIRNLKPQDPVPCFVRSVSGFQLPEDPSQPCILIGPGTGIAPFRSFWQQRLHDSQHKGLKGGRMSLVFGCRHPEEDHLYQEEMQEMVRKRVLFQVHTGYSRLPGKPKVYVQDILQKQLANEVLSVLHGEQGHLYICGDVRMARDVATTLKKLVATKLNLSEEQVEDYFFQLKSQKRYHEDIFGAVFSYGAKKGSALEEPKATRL
Particulars: at 1 mM.

Experiment [9] deals with 72 kDa type IV collagenase (Homo sapiens, UniProt P08253). The following applies: at 1 mM.
Chain of 72 kDa type IV collagenase (P08253 110-660 limits assumed): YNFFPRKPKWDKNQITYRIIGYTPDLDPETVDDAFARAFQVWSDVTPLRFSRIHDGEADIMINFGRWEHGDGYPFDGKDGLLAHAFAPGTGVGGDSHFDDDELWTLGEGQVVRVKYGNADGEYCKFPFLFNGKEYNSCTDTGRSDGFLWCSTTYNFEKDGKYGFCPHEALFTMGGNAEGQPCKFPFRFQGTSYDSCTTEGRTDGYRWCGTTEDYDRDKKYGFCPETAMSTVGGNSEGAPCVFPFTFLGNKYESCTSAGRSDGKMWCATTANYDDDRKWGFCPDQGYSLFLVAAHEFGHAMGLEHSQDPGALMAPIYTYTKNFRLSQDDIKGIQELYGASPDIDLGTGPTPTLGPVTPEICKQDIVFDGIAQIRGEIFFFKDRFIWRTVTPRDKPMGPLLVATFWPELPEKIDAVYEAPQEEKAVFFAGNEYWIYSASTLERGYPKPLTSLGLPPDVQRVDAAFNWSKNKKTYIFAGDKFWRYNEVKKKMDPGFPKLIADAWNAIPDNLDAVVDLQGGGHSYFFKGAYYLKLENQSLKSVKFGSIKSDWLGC

This passage reports inhibition results from ChEMBL document CHEMBL1649420, “Identifying chelators for metalloprotein inhibitors using a fragment-based approach” (J Med Chem, 2011).

One may read the inhibition as the change of the read-out against control, counted positive when it falls.

The structures appear in SMILES notation.

Chain of Neutrophil collagenase (Homo sapiens) (P22894 101-467 limits assumed): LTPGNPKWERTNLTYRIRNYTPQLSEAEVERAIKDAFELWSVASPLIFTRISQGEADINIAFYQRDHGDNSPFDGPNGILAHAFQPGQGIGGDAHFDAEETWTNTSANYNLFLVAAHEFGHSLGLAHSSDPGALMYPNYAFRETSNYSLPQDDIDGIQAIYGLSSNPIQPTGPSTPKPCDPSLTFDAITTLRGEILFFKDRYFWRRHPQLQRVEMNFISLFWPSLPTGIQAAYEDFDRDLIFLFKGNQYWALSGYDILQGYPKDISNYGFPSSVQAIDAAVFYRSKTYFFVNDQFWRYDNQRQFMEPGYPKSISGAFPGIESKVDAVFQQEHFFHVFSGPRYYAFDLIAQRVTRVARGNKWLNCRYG

Take `Cc1ccc(C(=O)O)c(O)c1`: the inhibition in experiment [1] was 17%; in experiment [2] it was 97%; in [3], 11%; in [4], 8%; in experiment [5], -1%; in [6] it was 16%. The results for the inhibition in experiment [7] and in experiment [8] were 10% and 15%, respectively.

For `Cc1nc(O)cc(O)n1`, the inhibition in [1] stood at 62%; in experiment [2], 12%; in [4], 14%; in [9] it was 2%; in experiment [5], 22%; in experiment [6], 14%. The values for the inhibition in experiment [7] and in experiment [8] were 4% and 1%, respectively.

Turning to `CC(=O)CC(C)=O`, the inhibition was 42% in experiment [1]; 77% in experiment [2]; 5% in experiment [3]; 10% in experiment [4]; -5% in experiment [9]; -4% in [5]. Moreover, the inhibition in experiment [6] and in experiment [8] was -6% throughout.

Regarding `O=C(O)c1ccc[nH]1`, the inhibition in experiment [1] was 48%; in experiment [2] it was 69%; in experiment [3], 11%; in experiment [4], 8%; in [9], 1%; in experiment [5], -8%. In addition, the inhibition in experiment [8] came out at 7%.

With `Cc1cccc(C(=O)O)n1`, the inhibition in experiment [1] was 21%; in experiment [2] it was 25%; in [3] it was 47%; in experiment [4] it was -9%; in experiment [5], 48%; in experiment [6] it was 3%. Also, the inhibition in experiment [7] was -6%; in experiment [8], 8%.

As for `O=C(O)c1cccc(O)n1`, the inhibition was 38% in experiment [1]; 95% in experiment [2]; 81% in experiment [3]; 16% in experiment [4]; 0% in [5]; 20% in [6]. Moreover, the values for the inhibition in experiment [7] and in experiment [8] were 16% and 6%, respectively.

On to `CCC(C(C)=O)C(C)=O`, for which the inhibition in experiment [1] came out at 62%; in [2], 85%; in experiment [3], 4%; in experiment [4] it was 7%; in experiment [5], 6%; in experiment [6] it was 3%. The inhibition in [7] was 1%; in experiment [8], -1%.

`O=C(O)c1nc(Cl)ccc1Cl`: the inhibition in experiment [1] was found to be 27%; in [2] it was 96%; in experiment [4] it was 12%; in experiment [9] it was 0%; in experiment [5], 0%; in [6] it was 18%. Moreover, the inhibition was found to be 18% in experiment [7] and 20% in [8].

Consider `O=C(O)c1cccc2cccnc12`, for which the inhibition is 23% in [1]; -2% in experiment [2]; 36% in [4]; 25% in experiment [9]; 77% in experiment [5]; 38% in [6]. In addition, the inhibition in experiment [7] turned out to be 31%; in [8] it was 11%.

On to `CC(=O)C(Cl)C(C)=O`, for which the inhibition in [1] is 52%; in experiment [2], 86%; in experiment [3], 9%; in experiment [4], 11%; in [9] it was -9%; in experiment [5], -6%. The inhibition in [6] was -7%; in experiment [8] it was 80%.

`O=C(O)c1c(O)cccc1O`: the inhibition is 38% in [1]; 95% in experiment [2]; 15% in [3]; 0% in [4]; -6% in [9]; -4% in experiment [5]. For the same compound, the values for the inhibition in experiment [6] and in [8] were -5% and 17%, respectively.
